Experimental data as given in PMC10623572, “Subtle Structural Modification of a Synthetic Cannabinoid Receptor Agonist Drastically Increases its Efficacy at the CB1 Receptor” (ACS Chemical Neuroscience, 2023).

Legend:
[1] = target: T1, CB1R (presynaptic, mouse hippocampus) (Mus musculus, UniProt P47746); test: fEPSP field recording, inhibition of glutamate release in hippocampal slices; settings: agonist; native presynaptic receptor, downstream read-out; 31-32 °C; 50 µM caffeine; reversed by AM251
T1 construct: gene Cnr1; native receptor in hippocampal brain slices
T1 sequence (P47746 whole entry): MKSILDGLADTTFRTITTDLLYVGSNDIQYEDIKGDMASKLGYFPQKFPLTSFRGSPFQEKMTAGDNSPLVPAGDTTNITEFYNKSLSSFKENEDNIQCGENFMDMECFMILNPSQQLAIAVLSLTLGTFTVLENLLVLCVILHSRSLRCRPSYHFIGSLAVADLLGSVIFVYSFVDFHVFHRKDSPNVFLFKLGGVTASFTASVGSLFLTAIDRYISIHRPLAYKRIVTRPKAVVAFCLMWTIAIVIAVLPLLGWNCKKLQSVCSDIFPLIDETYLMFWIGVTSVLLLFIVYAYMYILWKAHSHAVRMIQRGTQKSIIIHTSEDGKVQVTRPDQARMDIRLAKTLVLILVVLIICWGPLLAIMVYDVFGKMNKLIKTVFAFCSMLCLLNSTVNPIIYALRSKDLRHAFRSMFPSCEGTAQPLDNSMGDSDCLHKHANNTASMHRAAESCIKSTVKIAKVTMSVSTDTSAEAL

[2] = target: T2, CB1R (CB1R-Rluc) (Homo sapiens, UniProt P21554); test: BRET CB1R-Rluc/beta-arrestin 2-Venus recruitment; assay type: cell-based
T2 construct: gene CNR1; Rluc-fused receptor in HEK-293T cells; with mVenus-Gi1 plus Gbeta1/Ggamma2, or beta-arrestin 2-Venus plus GRK2
T2 sequence (P21554 whole entry, the tested form may be a part): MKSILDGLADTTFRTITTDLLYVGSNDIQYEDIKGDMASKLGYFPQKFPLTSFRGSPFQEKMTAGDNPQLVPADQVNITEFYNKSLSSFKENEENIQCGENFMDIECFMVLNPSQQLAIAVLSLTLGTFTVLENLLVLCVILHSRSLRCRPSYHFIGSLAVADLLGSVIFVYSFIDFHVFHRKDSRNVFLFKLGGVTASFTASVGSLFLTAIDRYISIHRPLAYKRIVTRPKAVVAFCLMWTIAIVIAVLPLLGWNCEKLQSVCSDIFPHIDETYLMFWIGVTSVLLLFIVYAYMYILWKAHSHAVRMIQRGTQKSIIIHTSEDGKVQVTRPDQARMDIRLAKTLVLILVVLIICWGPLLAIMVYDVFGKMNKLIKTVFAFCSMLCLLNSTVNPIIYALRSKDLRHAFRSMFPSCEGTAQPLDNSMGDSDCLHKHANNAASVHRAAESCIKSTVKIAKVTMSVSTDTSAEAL
From the text: BRET CB1R-Rluc/beta-arrestin 2-Venus recruitment on CB1R (CB1R-Rluc)

[3] = target: T2, CB1R (CB1R-Rluc); test: BRET CB1R-Rluc/Gi1-Venus engagement; assay type: cell-based
[4] = read-out: 5F-MMB-PICA (converted)
[5] = read-out: 5F-SDB-006 (converted)

**Q.** Which pEC50 [1] does the source give for `COC(=O)C(NC(=O)c1cn(CCCCCF)c2ccccc12)C(C)(C)C` (stereo not shown) [5F-MDMB-PICA] here?
**A.** The pEC50 was 7.20.

**Q.** For `COC(=O)C(NC(=O)c1cn(CCCCCF)c2ccccc12)C(C)C` (stereo not shown) [5F-MMB-PICA], which pEC50 [1] is on record?
**A.** Its pEC50 is 6.72.

**Q.** What about the EC50 [2, 4] of the same compound?
**A.** Its EC50 is 3.63 µM.

**Q.** And the EC50 [3, 4]?
**A.** The EC50 was 2.95 µM.

**Q.** Which results are given for `O=C(Nc1cccc2ccccc12)c1cn(CCCCCF)c2ccccc12` [5F-NNEI]?
**A.** EC50 ([2]; read-out: 5F-NNEI): 5.25 µM; EC50 ([3]; read-out: 5F-NNEI (converted)): 4.68 µM

**Q.** How did the EC50 [2, 5] turn out when `O=C(NCc1ccccc1)c1cn(CCCCCF)c2ccccc12` [5F-SDB-006] was run?
**A.** The EC50 was 2.45 µM.

**Q.** And the EC50 [3, 5]?
**A.** Its EC50 is 1.48 µM.

**Q.** How did the EC50 ([2]; read-out: AM2201 (converted)) turn out when `O=C(c1cccc2ccccc12)c1cn(CCCCCF)c2ccccc12` [AM2201] was run?
**A.** The EC50 was 0.759 µM.

**Q.** And the EC50 ([3]; read-out: AM2201 (converted))?
**A.** The EC50 was 0.339 µM.
